PubChem BioAssay AID1745844 (Carcinogenic Potency Database (CPDB), 2022)
The source made the active and inactive calls. No rule for the calls is given here.

System: rodent lifetime carcinogenesis bioassay, tumor incidence TD50
Assay: chronic cancer bioassays in animals – CPDB, compiled studies (AID 1745844)

O=C(OC[C@@H]1O[C@H](OC(=O)c2cc(O)c(O)c(OC(=O)c3cc(O)c(O)c(O)c3)c2)[C@@H](OC(=O)c2cc(O)c(O)c(OC(=O)c3cc(O)c(O)c(O)c3)c2)[C@H](OC(=O)c2cc(O)c(O)c(OC(=O)c3cc(O)c(O)c(O)c3)c2)[C@H]1OC(=O)c1cc(O)c(O)c(OC(=O)c2cc(O)c(O)c(O)c2)c1)c1cc(O)c(O)c(OC(=O)c2cc(O)c(O)c(O)c2)c1
TD50 (rat, strain F344/DuCrj, females, in drinking water, site: any site (literature study), lesion: several types, types named in the paper, dosed 104 weeks, study length 114 weeks): 620 mg/kg/day (inactive) | TD50 (rat, strain F344/DuCrj, females, in drinking water, site: liver, lesion: hepatocellular adenoma, dosed 104 weeks, study length 114 weeks): 16000 mg/kg/day (inactive) | carcinogen call (rat, strain F344/DuCrj, males, in drinking water, site: any site (literature study), lesion: several types, types named in the paper, dosed 104 weeks, study length 114 weeks): negative (inactive) | carcinogen call (rat, strain F344/DuCrj, males, in drinking water, site: liver, lesion: hepatocellular adenoma, dosed 104 weeks, study length 114 weeks): negative (inactive)

N/C(=N\O)c1ccc([N+](=O)[O-])o1
TD50 (rat, strain Sprague-Dawley, females, in feed, site: any site (literature study), lesion: several types, types named in the paper, dosed 46 weeks, study length 66 weeks): 42 mg/kg/day (inactive)

NNc1ccccc1
TD50 (mouse, strain Swiss albino, females, in drinking water, site: blood vessels, lesion: angioma, dosed 112 weeks, study length 112 weeks): 147 mg/kg/day | TD50 (mouse, strain Swiss albino, females, in drinking water, site: blood vessels, lesion: angiosarcoma, dosed 112 weeks, study length 112 weeks): 165 mg/kg/day | TD50 (mouse, strain Swiss albino, females, in drinking water, site: blood vessels, lesion: several types, types named in the paper, dosed 112 weeks, study length 112 weeks): 72.1 mg/kg/day | TD50 (mouse, strain Swiss albino, females, in drinking water, site: liver, lesion: angioma, dosed 112 weeks, study length 112 weeks): 165 mg/kg/day | TD50 (mouse, strain Swiss albino, females, in drinking water, site: liver, lesion: angiosarcoma, dosed 112 weeks, study length 112 weeks): 165 mg/kg/day | TD50 (mouse, strain Swiss albino, females, in drinking water, site: liver, lesion: several types, types named in the paper, dosed 112 weeks, study length 112 weeks): 68.6 mg/kg/day | carcinogen call (mouse, strain Swiss albino, females, in drinking water, site: lung, lesion: several types, types named in the paper, dosed 112 weeks, study length 112 weeks): negative (inactive) | TD50 (mouse, strain Swiss albino, males, in drinking water, site: blood vessels, lesion: several types, types named in the paper, dosed 112 weeks, study length 112 weeks): 70.6 mg/kg/day | TD50 (mouse, strain Swiss albino, males, in drinking water, site: liver, lesion: several types, types named in the paper, dosed 112 weeks, study length 112 weeks): 83.9 mg/kg/day | carcinogen call (mouse, strain Swiss albino, males, in drinking water, site: lung, lesion: several types, types named in the paper, dosed 112 weeks, study length 112 weeks): negative (inactive) | carcinogen call (mouse, strain Swiss, females, by gavage, site: lung, lesion: one or several types, types not named, dosed 39 weeks, study length 55 weeks): negative (inactive)

O=C1c2ccccc2CN2C(=O)c3ccccc3CN12
TD50 (mouse, strain BALB/cLacDp, females, in feed, site: liver, lesion: angioma, dosed 80 weeks, study length 119 weeks): 7130 mg/kg/day | TD50 (mouse, strain BALB/cLacDp, females, in feed, site: liver, lesion: angiosarcoma, dosed 80 weeks, study length 119 weeks): 852 mg/kg/day | TD50 (mouse, strain BALB/cLacDp, females, in feed, site: liver, lesion: hepatocellular adenoma, dosed 80 weeks, study length 119 weeks): 1150 mg/kg/day | TD50 (mouse, strain BALB/cLacDp, females, in feed, site: liver, lesion: hepatocellular carcinoma, dosed 80 weeks, study length 119 weeks): 3540 mg/kg/day | TD50 (mouse, strain BALB/cLacDp, females, in feed, site: lung, lesion: several types, types named in the paper, dosed 80 weeks, study length 119 weeks): 269 mg/kg/day (inactive) | TD50 (mouse, strain BALB/cLacDp, males, in feed, site: liver, lesion: angioma, dosed 80 weeks, study length 119 weeks): 1370 mg/kg/day | TD50 (mouse, strain BALB/cLacDp, males, in feed, site: liver, lesion: angiosarcoma, dosed 80 weeks, study length 119 weeks): 879 mg/kg/day | TD50 (mouse, strain BALB/cLacDp, males, in feed, site: lung, lesion: several types, types named in the paper, dosed 80 weeks, study length 119 weeks): 412 mg/kg/day (inactive)

Clc1ccc2c(c1)Oc1ccc(Cl)cc1O2
carcinogen call (mouse, strain B6C3F1, females, in feed, site: any site (literature study), lesion: several types, types named in the paper, dosed 90 weeks, study length 91 weeks): negative (inactive) | TD50 (mouse, strain B6C3F1, males, in feed, site: all sites, lesion: hemangioma + hemangiosarcoma, dosed 90 weeks, study length 92 weeks): 2750 mg/kg/day | TD50 (mouse, strain B6C3F1, males, in feed, site: all sites, lesion: leukemia + lymphoma, dosed 90 weeks, study length 92 weeks): 1920 mg/kg/day | TD50 (mouse, strain B6C3F1, males, in feed, site: any site (literature study), lesion: several types, types named in the paper, dosed 90 weeks, study length 92 weeks): 2910 mg/kg/day | TD50 (mouse, strain B6C3F1, males, in feed, site: liver, lesion: hepatocellular adenoma + hepatocellular carcinoma + neoplastic nodule, dosed 90 weeks, study length 92 weeks): 2120 mg/kg/day | TD50 (mouse, strain B6C3F1, males, in feed, site: liver, lesion: hepatocellular adenoma + hepatocellular carcinoma, dosed 90 weeks, study length 92 weeks): 2120 mg/kg/day | carcinogen call (rat, strain Osborne-Mendel, females, in feed, site: any site (literature study), lesion: several types, types named in the paper, dosed 110 weeks, study length 110 weeks): negative (inactive) | carcinogen call (rat, strain Osborne-Mendel, males, in feed, site: any site (literature study), lesion: several types, types named in the paper, dosed 110 weeks, study length 110 weeks): negative (inactive) | TD50 (rat, strain Osborne-Mendel, males, in feed, site: liver, lesion: hepatocellular adenoma + hepatocellular carcinoma + neoplastic nodule, dosed 110 weeks, study length 110 weeks): 12900 mg/kg/day

O=C(O)c1cc(O)c(O)c(O)c1
carcinogen call (rat, strain F344/DuCrj, males, in feed, site: forestomach, lesion: squamous-cell carcinoma, dosed 60 weeks, study length 60 weeks): negative (inactive) | carcinogen call (rat, strain F344/DuCrj, males, in feed, site: forestomach, lesion: squamous-cell papilloma, dosed 60 weeks, study length 60 weeks): negative (inactive)
